Data as given in article PMC3303745, “Elucidation of the Rotavirus NSP4-Caveolin-1 and -Cholesterol Interactions Using Synthetic Peptides” (Journal of Amino Acids, 2012).
Several values for one entry are separate records, joined by “and”; a condition that tells them apart may be missing. Equal entries are not always repeated.

What was measured:
RV-infected MDCK cells = assay: Treatment of RV-infected MDCK cells with cholesterol-altering drugs, NSP4 transport by immunofluorescence; format: cell-based; details: RV-infected MDCK cells (MOI 2, 12 hpi), treated in triplicate at recommended effective dose; stained with anti-NSP4_150-175 and anti-rabbit-IgG-FITC; compared to untreated infected cells
Description: MDCK cells were infected with RV at a multiplicity of infection (MOI) of 2 and incubated for 12 hpi. The cells were washed and treated in triplicate with the cholesterol altering drugs, fillipin [40], and nystatin [41] exactly as described. Chlorpromazine and nocodazole were utilized as negative and positive controls, respectively. Cells were fixed with methanol : acetone (1 : 1) at −20°C for 10 min, blocked with 5% dry milk for 20 min, incubated with anti-NSP4_150-175 and anti-rabbit-IgG-FITC, and examined under a UV microscope (Zeiss). The cell surface carefully was observed and the presence or absence of fluorescence carefully noted. Comparisons also were made to untreated cells. Primary and secondary antibody controls were negative. To ensure the lack of drug toxicity, a separate set of cells were treated and then stained with trypan blue.

NSP4_112-140 [1] = target: T1, NSP4_112-140 (Rotavirus A, UniProt P04512); format: physicochemical
[2] = Circular dichroism, percent α-helix of single peptides; format: physicochemical; details: CD, from molar ellipticity at 222 nm, mean ± SD, n = 4; for Percent α-helix, 50% TFE: peptide 15–35 μM in 50% trifluoroethanol; for Percent α-helix, 1 mM SUV: peptide 15–35 μM with 1 mM SUV (55 : 35 : 10, POPC/cholesterol/DOPS); for Percent α-helix, Aqueous Buffer: peptide 15–35 μM, 10 mM potassium phosphate buffer pH 7.4
[3] = cited from earlier work
NSP4_112-140 [4] = target: T1, NSP4_112-140; format: binding
[5] = target: T2, Cy3-N-Cav_(19-40) (caveolin-1 aa 19-40, Cy3-labelled) (not fully specified); assay: other fluorescence titration; details: both partners purified
T2 construct: also called Cy3-Cav_(19-40); N-caveolin-1_(19-40)
T2 peptide: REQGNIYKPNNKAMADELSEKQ

| Molecule | Results: NSP4 transport to the cell surface (RV-infected MDCK cells) | % helical content, Observed, 1 mM SUV (NSP4_112-140 [1]) [%] | % helical content, Observed, 50% TFE (NSP4_112-140 [1]) [%] | % helical content, Observed, Aqueous buffer (NSP4_112-140 [1]) [%] | % helical content, Theoretical, 1 mM SUV (NSP4_112-140 [1]) [%] | % helical content, Theoretical, 50% TFE (NSP4_112-140 [1]) [%] | % helical content, Theoretical, Aqueous buffer (NSP4_112-140 [1]) [%] | Percent α-helix, 50% TFE [2] | Percent α-helix, 1 mM SUV [2] [%] | Percent α-helix, Aqueous Buffer [2] [%] | also measured |
| --- | --- | --- | --- | --- | --- | --- | --- | --- | --- | --- | --- |
| CCCCC[C@@H](O)[C@H]1C(=O)O[C@H](C)[C@@H](O)/C=C/C=C/C=C/C=C/C=C(\C)[C@@H](O)C[C@H](O)C[C@H](O)C[C@H](O)C[C@H](O)C[C@H](O)C[C@@H]1O [Fillipin] | Disrupted NSP4 transport |  |  |  |  |  |  |  |  |  |  |
| CN(C)CCCN1c2ccccc2Sc2ccc(Cl)cc21 [Chlorpromazine] | Normal NSP4 transport to the PM. |  |  |  |  |  |  |  |  |  |  |
| C[C@@H]1[C@H](O)[C@@H](C)/C=C/C=C/CC/C=C/C=C/C=C/C=C/C(O[C@H]2O[C@H](C)[C@@H](O)[C@H](N)[C@@H]2O)CC2O[C@](O)(CC(O)C(O)CCC(O)CC(O)CC(O)CC(=O)O[C@H]1C)CC(O)C2C(=O)O (stereo partly shown) [Nystatin] | Disrupted NSP4 transport |  |  |  |  |  |  |  |  |  |  |
| FEDVIAEPEGTHS [Cav68-80, caveolin-1 central region peptide aa 68–80, negative control] |  | 31.3 ± 0.2 | 45.9 ± 2.8 | 24.2 ± 0.3 | 37.5 ± 1.9 | 49.8 ± 1.8 | 23.9 ± 0.7 | 23.1% and 24.4 ± 0.8% | 21.4 ± 2.0 | 23.4 ± 0.9 |  |
| EAVGKIFSNVRINLQKEI [C-Cav161-178, caveolin-1 C-terminal peptide aa 161–178] |  | 51.9 ± 2.4 | 44.2 ± 10.6 | 25.0 ± 1.7 | 49.5 ± 6.2 | 67.8 ± 3.2 | 35.3 ± 1.6 | 57.4 ± 4.4% | 42.5 ± 10.6 | 43.4 ± 3.8 |  |
| COC(=O)Nc1nc2ccc(C(=O)c3cccs3)cc2[nH]1 [Nocodazole] | Disrupted NSP4 transport |  |  |  |  |  |  |  |  |  |  |
| CC(C)CCC[C@@H](C)[C@H]1CC[C@H]2[C@@H]3CC=C4C[C@@H](O)CC[C@]4(C)[C@H]3CC[C@]12C [cholesterol] |  |  |  |  |  |  |  |  |  |  | critical micellar concentration (CMC) [3]: 25 to 40 nM |
| SGGKYVDSEGHLYTVPIRE [N-Cav2-20, caveolin-1 N-terminal peptide aa 2–20] |  | 34.7 ± 6.0 | 46.3 ± 7.2 | 21.7 ± 0.8 | 37.7 ± 1.9 | 47.6 ± 1.8 | 23.6 ± 2.6 | 16.5 ± 0.9% | 18.5 ± 1.9 | 18.9 ± 2.8 | fold increase in affinity in presence of SUV over absence of membranes (NSP4_112-140 [4]): ~3 fold |
| MIDKLTTREIEQVELLKRIYDKLTVQTTG (also called NSP4 (aa 112-140)) [NSP4_(112-140) peptide (rotavirus nonstructural protein 4, aa 112-140)] |  |  |  |  |  |  |  |  |  |  | Kd [5]: 40 nM |
